Measured values from US11149018B2, “Substituted N-arylethyl-2-aminoquinoline-4-carboxamides and use thereof” (Bayer Aktiengesellschaft, priority 2017, dated 2021).
Counter-ions that a name gives are not always drawn.

What follows are compounds tested against FP receptor (Homo sapiens (Human), UniProt P43088) (assay: In vitro test of inhibition of human FP receptor activity (PGF2α-induced calcium flux in FP-expressing CHEM1 cells)). Conditions: PGF2α 2 nM, some mean values of multiple determinations.
FP receptor, sequence (P43088 whole entry): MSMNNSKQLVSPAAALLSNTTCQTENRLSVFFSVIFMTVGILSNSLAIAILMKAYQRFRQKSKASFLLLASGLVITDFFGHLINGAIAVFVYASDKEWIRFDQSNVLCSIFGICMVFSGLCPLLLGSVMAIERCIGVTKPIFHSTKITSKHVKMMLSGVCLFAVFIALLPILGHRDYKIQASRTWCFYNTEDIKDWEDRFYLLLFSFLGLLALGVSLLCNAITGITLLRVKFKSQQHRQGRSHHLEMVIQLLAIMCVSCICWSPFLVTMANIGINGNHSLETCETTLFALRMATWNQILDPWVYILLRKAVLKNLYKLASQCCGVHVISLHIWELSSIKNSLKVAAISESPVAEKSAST
Type: cell-based
How it was run: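 FP antagonism in FP-expressing CHEM1 cells loaded with Fluo-8. Compound preincubated 10 min at 37° C, then receptor stimulated with 2 nM (final) PGF2α in calcium-free Tyrode with 2 mM CaCl2.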

Row | Compound | IC50 [nM]
1 | COC1CCCN(c2nc3ccc(Br)cc3c(C(=O)NCC(CCC(=O)O)c3cc(F)ccc3Cl)c2C)C1 (centres unmarked) [Example 19, 5-[({6-Bromo-2-[3-methoxypiperidin-1-yl]-3-methylquinolin-4-yl}carbonyl)amino]-4-(2-chloro-5-fluorophenyl)pentanoic acid] | 130
2 | Cc1c(N2C[C@@H](C)O[C@@H](C)C2)nc2ccc(Br)cc2c1C(=O)NCC(CCC(=O)O)c1cc(F)ccc1Cl (mixture of isomers) [Example 12, (+/−)-5-[({6-Bromo-2-[cis-2,6-dimethylmorpholin-4-yl]-3-methylquinolin-4-yl}carbonyl)amino]-4-(2-chloro-5-fluorophenyl)pentanoic acid] | 220
3 | Cc1c(N2CCCC(F)C2)nc2ccc(Br)cc2c1C(=O)NCC(CCC(=O)O)c1c(F)ccc(F)c1Cl (centres unmarked) [Example 156, 5-[({6-Bromo-2-[3-fluoropiperidin-1-yl]-3-methylquinolin-4-yl}carbonyl)amino]-4-(2-chloro-3,6-difluorophenyl)pentanoic acid] | 2.5
4 | COCCNc1nc2ccc(Br)cc2c(C(=O)NCC(CCC(=O)O)c2ccccc2Cl)c1C (racemic) [Example 104, (+/−)-5-[({6-Bromo-2-[(2-methoxyethyl)amino]-3-methylquinolin-4-yl}carbonyl)amino]-4-(2-chlorophenyl)pentanoic acid] | 410
5 | Cc1c(N2CCCC(F)(F)C2)nc2ccc(Br)cc2c1C(=O)NCC(CCC(=O)O)c1ccccc1OC(F)(F)F (single isomer, unassigned; (+)) [Example 134, (+)-5-({[6-Bromo-2-(3,3-difluoropiperidin-1-yl)-3-methylquinolin-4-yl]carbonyl}amino)-4-[2-(trifluoromethoxy)phenyl]pentanoic acid] | 4.9
6 | Cc1c(N2CCCCC2)nc2ccc(Br)cc2c1C(=O)NCC(CCC(=O)O)c1cc(F)ccc1F (racemic) [Example 255, (+/−)-5-({[6-Bromo-3-methyl-2-(piperidin-1-yl)quinolin-4-yl]carbonyl}amino)-4-(2,5-difluorophenyl)pentanoic acid] | 20
7 | Cc1c(N2CCCC(F)(F)C2)nc2ccc(Br)cc2c1C(=O)NCC(CCC(=O)O)c1c(F)cccc1C(F)(F)F (racemic) [Example 166, (+/−)-5-({[6-Bromo-2-(3,3-difluoropiperidin-1-yl)-3-methylquinolin-4-yl]carbonyl}amino)-4-[2-fluoro-6-(trifluoromethyl)phenyl]pentanoic acid] | 9.5
8 | Cc1c(N2CCCC(C)C2)nc2ccc(Br)cc2c1C(=O)NCC(CCC(=O)O)c1ccccc1OC(F)(F)F (single isomer, unassigned; (-)) [Example 210, (−)-5-[({6-Bromo-3-methyl-2-[3-methylpiperidin-1-yl]quinolin-4-yl}carbonyl)amino]-4-[2-(trifluoromethoxy)phenyl]pentanoic acid] | 0.68
9 | (+)-5-[({6-Bromo-3-methyl-2-[(^2H8)pyrrolidin-1-yl]quinolin-4-yl}carbonyl)amino]-4-[2-(trifluoromethyl)phenyl]pentanoic acid [Example 278] | 34
10 | Cc1c(N2CCc3ccccc3C2)nc2ccc(Br)cc2c1C(=O)NCC(CCC(=O)O)c1ccccc1Cl (racemic) [Example 84, (+/−)-5-({[6-Bromo-2-(3,4-dihydroisoquinolin-2(1H)-yl)-3-methylquinolin-4-yl]carbonyl}amino)-4-(2-chlorophenyl)pentanoic acid] | 28
11 | Cc1c(N2CCCC(C)(C)C2)nc2ccc(Br)cc2c1C(=O)NCC(CCC(=O)O)c1ccccc1Cl (single isomer, unassigned; (-)) [Example 43, (−)-5-({[6-Bromo-2-(3,3-dimethylpiperidin-1-yl)-3-methylquinolin-4-yl]carbonyl}amino)-4-(2-chlorophenyl)pentanoic acid] | 90
12 | COCC1CCCN(c2nc3ccc(Br)cc3c(C(=O)NCC(CCC(=O)O)c3ccccc3Cl)c2C)C1 (centres unmarked) [Example 93, 5-[({6-Bromo-2-[3-(methoxymethyl)piperidin-1-yl]-3-methylquinolin-4-yl}carbonyl)amino]-4-(2-chlorophenyl)pentanoic acid] | 80
13 | Cc1c(N2CCCC2)nc2ccc(Br)cc2c1C(=O)NCC(CCC(=O)O)c1c(Cl)ccc(Cl)c1Cl (single isomer, unassigned; (-)) [Example 176, formate] | 7.8
14 | Cc1c(N2CCCC(F)(F)C2)nc2ccc(Br)cc2c1C(=O)NCC(CCC(=O)O)c1c(Cl)cccc1Cl (single isomer, unassigned; (+)) [Example 266, (+)-5-({[6-Bromo-2-(3,3-difluoropiperidin-1-yl)-3-methylquinolin-4-yl]carbonyl}amino)-4-(2,6-dichlorophenyl)pentanoic acid] | 37

Results, then the compound that gave them:

Row | IC50 [nM] | Compound
15 | 29 | Cc1c(N2CC=CCC2)nc2ccc(Br)cc2c1C(=O)NCC(CCC(=O)O)c1ccccc1Cl (single isomer, unassigned) [Example 31, 5-({[6-Bromo-2-(3,6-dihydropyridin-1(2H)-yl)-3-methylquinolin-4-yl]carbonyl}amino)-4-(2-chlorophenyl)pentanoic acid]
16 | 430 | COC1CCN(c2nc3ccc(Br)cc3c(C(=O)NCC(CCC(=O)O)c3ccccc3Cl)c2C)C1 (centres unmarked) [Example 41, 5-[({6-Bromo-2-[3-methoxypyrrolidin-1-yl]-3-methylquinolin-4-yl}carbonyl)amino]-4-(2-chlorophenyl)pentanoic acid]
17 | 16 | Cc1c(N2C[C@@H](F)[C@@H](F)C2)nc2ccc(Br)cc2c1C(=O)NCC(CCC(=O)O)c1ccccc1Cl (mixture of isomers) [Example 70, (+/−)-5-[({6-Bromo-2-[cis-3,4-difluoropyrrolidin-1-yl]-3-methylquinolin-4-yl}carbonyl)amino]-4-(2-chlorophenyl)pentanoic acid]
18 | 29 | Cc1c(N2CCCC2)nc2ccc(Br)cc2c1C(=O)NCC(CCC(=O)O)c1cc(F)ccc1F (single isomer, unassigned; (-)) [Example 260, (−)-5-({[6-Bromo-3-methyl-2-(pyrrolidin-1-yl)quinolin-4-yl]carbonyl}amino)-4-(2,5-difluorophenyl)pentanoic acid]
19 | 10 | Cc1c(N2CCCC(F)(F)C2)nc2ccc(Br)cc2c1C(=O)NCC(CCC(=O)O)c1c(Cl)ccc(Cl)c1Cl (racemic) [Example 177, (+/−)-5-({[6-Bromo-2-(3,3-difluoropiperidin-1-yl)-3-methylquinolin-4-yl]carbonyl}amino)-4-(2,3,6-trichlorophenyl)pentanoic acid]
20 | 550 | Cc1c(N2CCS(=O)(=O)CC2)nc2ccc(Br)cc2c1C(=O)NCC(CCC(=O)O)c1ccccc1Cl (racemic) [Example 87, (+/−)-5-({[6-Bromo-2-(1,1-dioxidothiomorpholin-4-yl)-3-methylquinolin-4-yl]carbonyl}amino)-4-(2-chlorophenyl)pentanoic acid]
21 | 21 | Cc1c(N2CCCC(C)C2)nc2ccc(Br)cc2c1C(=O)NCC(CCC(=O)O)c1ccccc1C(F)(F)F (single isomer, unassigned; (+)) [Example 197, (+)-5-[({6-Bromo-3-methyl-2-[3-methylpiperidin-1-yl]quinolin-4-yl}carbonyl)amino]-4-[2-(trifluoromethyl)phenyl]pentanoic acid]
22 | 80 | Cc1c(N2CCCC2)nc2ccc(Br)cc2c1C(=O)NCC(CCC(=O)O)c1c(F)cccc1C(F)(F)F (single isomer, unassigned; (+)) [Example 164, (+)-5-({[6-Bromo-3-methyl-2-(pyrrolidin-1-yl)quinolin-4-yl]carbonyl}amino)-4-[2-fluoro-6-(trifluoromethyl)phenyl]pentanoic acid]
23 | 1.7 | Cc1c(N2CCCC(C)C2)nc2ccc(Br)cc2c1C(=O)NCC(CCC(=O)O)c1c(F)ccc(F)c1Cl (centres unmarked) [Example 157, 5-[({6-Bromo-3-methyl-2-[3-methylpiperidin-1-yl]quinolin-4-yl}carbonyl)amino]-4-(2-chloro-3,6-difluorophenyl)pentanoic acid]
24 | 18 | Cc1ccccc1C(CCC(=O)O)CNC(=O)c1c(C)c(N2CCCC2)nc2ccc(Br)cc12 (racemic) [Example 232, (+/−)-5-({[6-Bromo-3-methyl-2-(pyrrolidin-1-yl)quinolin-4-yl]carbonyl}amino)-4-(2-methylphenyl)pentanoic acid]
25 | 42 | Cc1c(N2CC(F)C(F)C2)nc2ccc(Br)cc2c1C(=O)NCC(CCC(=O)O)c1ccccc1Cl (stereo not drawn) [Example 69, 5-[({6-Bromo-2-[trans-3,4-difluoropyrrolidin-1-yl]-3-methylquinolin-4-yl}carbonyl)amino]-4-(2-chlorophenyl)pentanoic acid]
26 | 8.5 | Cc1c(N2CCCC(F)(F)C2)nc2ccc(Br)cc2c1C(=O)NCC(CCC(=O)O)c1ccccc1C(F)(F)F (single isomer, unassigned; (-)) [Example 118, (−)-5-({[6-Bromo-2-(3,3-difluoropiperidin-1-yl)-3-methylquinolin-4-yl]carbonyl}amino)-4-[2-(trifluoromethyl)phenyl]pentanoic acid]
27 | 2.9 | Cc1c(N2CCCC2)nc2ccc(Br)cc2c1C(=O)NCC(CCC(=O)O)c1c(F)ccc(F)c1Cl (single isomer, unassigned; (-)) [Example 216, (−)-5-({[6-Bromo-3-methyl-2-(pyrrolidin-1-yl)quinolin-4-yl]carbonyl}amino)-4-(2-chloro-3,6-difluorophenyl)pentanoic acid]
28 | 9.4 | Cc1c(N2CCCCC2)nc2ccc(Br)cc2c1C(=O)NCC(CCC(=O)O)c1cc(F)ccc1Cl (racemic) [Example 5, (+/−)-5-({[6-Bromo-3-methyl-2-(piperidin-1-yl)quinolin-4-yl]carbonyl}amino)-4-(2-chloro-5-fluorophenyl)pentanoic acid]
29 | 21 | Cc1ccc(F)cc1C(CCC(=O)O)CNC(=O)c1c(C)c(N2CCCC(F)(F)C2)nc2ccc(Br)cc12 (single isomer, unassigned; (+)) [Example 214, (+)-5-({[6-Bromo-2-(3,3-difluoropiperidin-1-yl)-3-methylquinolin-4-yl]carbonyl}amino)-4-(5-fluoro-2-methylphenyl)pentanoic acid]
